Assay results reported in patent US20160303181A1, “SYNERGISTIC COMBINATION OF ALANINE-GLUTAMINE, HYALURONIC ACID AND OAT EXTRACT AND THE USE THEREOF IN A COMPOSITION INTENDED FOR HEALING WOUNDS AND REPAIRING SKIN LESIONS” (PIERRE FABRE DERMO-COSMETIQUE, priority 2013, published 2016).
Marks after values point to notes of the source that are not given here. Residues, ends and D or L forms follow the SMILES beside them.

System: HaCaT human keratinocyte line
Assay: Migration of keratinocytes, Oris Cell Migration Assay
Type: cell-based
Settings: DMEM 0% FCS, 24 hours; for effect on the migration of keratinocytes (in words): oat seedling extract 10 or 30 μg/ml, hyaluronate 20 or 60 μg/ml, L-alanyl-L-glutamine 40 or 90 μg/ml, EGF 33 ng/ml; for % Migration (percentage activity compared to the control 0% FCS): control = 100
Text: The objective of this test was to evaluate the effect of hyaluronic acid, oat seedling extract, L-alanyl-L-glutamine and combinations thereof on the migration of keratinocytes using the Oris Cell Migration Assay kit (Platypus Technologies).
The spontaneously immortalised HaCaT human keratinocyte line, frequently cited as reference model in the literature was used.
The protocol used for the study of cell migration is based on the use of a 96 well kit, the Oris Cell Migration Assay (Platypus technologies—TEBU), enabling the miniaturisation and the quantification of this cellular process.
The principle of this test consists in studying cell migration towards the centre of the wells of the 96 well plate. It consists in placing a stopper in the wells, in order to create a 2 mm diameter detection zone. Then removing the stoppers once cells have properly adhered to the surface around them, and thus to enable cells to migrate towards the detection zone. The plates without stoppers and with the active ingredients are incubated at 37° C. for 24 hours in DMEM (Dulbecco's Modified Eagle Medium) 0% FCS (foetal calf serum). The quantity of cells situated in the zone where the stopper was is analysed in order to evaluate the migration of the cells. A mask makes it possible to visualise and to count uniquely the cells situated in this zone. For each condition, the average is determined on 6 to 8 wells.
The cells were incubated in FCS-free medium.
• EGF: 33 ng/ml, • oat seedling extract: 10 or 30 μg/ml,
Filtering. Concentration by drying until a dry extract is obtained. • sodium hyaluronate (molecular weight 250-450 kDa): 20 or 60 μg/ml, • L-alanyl-L-glutamine: 40 or 90 μg/ml.
The Results are Expressed: • In fluorescence intensity (FI), proportional to the quantity of cells having migrated. • In percentage activity compared to the control 0% FCS.
Statistical analyses by the Dunnett test were carried out on the crude migration values. This test then gives “p value” values characterising the significance of the results obtained for different conditions. The degree of significance was fixed at […]

[1] = Table 1, lower concentrations: EGF 33 ng/ml, ES 10 μg/ml, AH 20 μg/ml, A-G 40 μg/ml, control 1850
[2] = Table 1, lower concentrations: EGF 33 ng/ml, ES 10 μg/ml, AH 20 μg/ml, A-G 40 μg/ml
[3] = Table 2, higher concentrations: EGF 33 ng/ml, ES 30 μg/ml, AH 60 μg/ml, A-G 90 μg/ml, control 1729 ± 384
[4] = Table 2, higher concentrations: EGF 33 ng/ml, ES 30 μg/ml, AH 60 μg/ml, A-G 90 μg/ml

Compound: C[C@H](N)C(=O)N[C@@H](CCC(N)=O)C(=O)O [A-G, L-alanyl-L-glutamine] (H-Ala-Gln-OH)
- effect on the migration of keratinocytes (in words): induces the migration of keratinocytes in a concentration-dependent manner
- Average ± SD (fluorescence intensity, proportional to the quantity of cells having migrated) [1]: 2471 ± 788
- % Migration (percentage activity compared to the control 0% FCS) [2]: 200%
- Average ± SD (fluorescence intensity, proportional to the quantity of cells having migrated) [3]: 2586 ± 1092
- % Migration (percentage activity compared to the control 0% FCS) [4]: 194%

Compound: EGF: positive control of the migration experiments, 33 ng/ml
- effect on the migration of keratinocytes (in words): induces the migration of keratinocytes
- Average ± SD (fluorescence intensity, proportional to the quantity of cells having migrated) [1]: 2569±
- % Migration (percentage activity compared to the control 0% FCS) [2]: 216%
- Average ± SD (fluorescence intensity, proportional to the quantity of cells having migrated) [3]: 3553 ± 1556
- % Migration (percentage activity compared to the control 0% FCS) [4]: 301 * %

Compound: sodium hyaluronate [AH]
- effect on the migration of keratinocytes (in words): did not have any significant effect on the migration of keratinocytes
- Average ± SD (fluorescence intensity, proportional to the quantity of cells having migrated) [1]: 1939 ± 438
- % Migration (percentage activity compared to the control 0% FCS) [2]: 114%
- Average ± SD (fluorescence intensity, proportional to the quantity of cells having migrated) [3]: 1735 ± 488
- % Migration (percentage activity compared to the control 0% FCS) [4]: 101%
